Series [1] relates to PC-3 cells. Briefly: Resazurin cytotoxicity assay, PC-3. To be noted: highest concentration 40 μM; bound = highest concentration with < 50 % inhibition; read-out: PC-3 cytotoxicity IC50 ± SEM. Format: cell-based, human. An excerpt:
(§1) An initial indication of compound selectivity over human cells had previously been obtained through comparison of the compounds’ IC50 values against P. falciparum asexual stages and HEK293 [22]. In the present study, the selectivity investigation was extended to a small panel of human cancer cell lines, namely the estrogen receptor (ER)-positive breast cancer cell line MCF7, the ER-negative MDA-MB-231, as well as the human prostate cancer line, PC-3. Additionally, the cytotoxic effects on mouse embryonic fibroblast cell line 3T3, which serves as the host cell for T. cruzi in our image-based amastigote assay, were investigated.
(§2) Cytotoxicity of the compounds was assessed against a panel of human cancer cell lines, namely the estrogen receptor (ER)-positive breast cancer cell line MCF7, the ER-negative MDA-MB-231 and the prostate cancer line PC-3. All the cell lines were purchased from ATCC and maintained as previously described. Two biological replicates consisting of two technical replicates each were performed to generate concentration response curves (CRC) with a final highest concentration of 40 μM. A resazurin-based assay was utilized to determine cell viability as described earlier. Additionally, the cytotoxic effects on the mouse embryonic fibroblast cell line 3T3 were assessed as part of the Trypanosoma cruzi amastigote image-based assay as outlined in [35].
(In general: Alamar Blue is a resazurin reagent that responds to reducing activity.)

Series [2] has as its system HEK293 cells. Conditions: as previously reported; read-out: HEK293 cytotoxicity IC50 ± SEM; cited from earlier work.
Series [3] relates to panel of human cancer cell lines (MCF7, MDA-MB-231, PC-3). Briefly: Cytotoxicity across the panel of cell lines. In kind it is cell-based. To be noted: for cytotoxicity against any of the cell lines investigated (in words): up to the highest tested concentration of 40 μM; for IC50: MCF7, MDA-MB-231, PC-3, read-out: IC50 range against the cancer cell lines.
From the text: as §1, §2

The subject of series [4] is P. falciparum developmental stages. Briefly: Activity across all P. falciparum life-cycle stages tested (asexual, early and late gametocytes). In kind it is cell-based, Plasmodium falciparum. To be noted: early and late stage gametocytes; for IC50: read-out: IC50 range across all P. falciparum life-cycle stages tested. As to the method: (§3) Induction of P. falciparum gametocyte differentiation and gametocyte culturing were performed as previously described. Compound activity against early stage gametocytes (covering the development from stage I to IIb/III) and late stage gametocytes (stage IV to V) of the recombinant P. falciparum line NF54^Pfs16 was assessed in concentration-response assays, in two experimental replicates consisting of two technical repeats each, at a highest concentration of 40 μM, as described earlier.

For series [5], the system named is P. falciparum asexual blood stages (PfAS). Nature of the series: Chemical rescue with CoA pathway intermediates, asexual stages. Format: cell-based, Plasmodium falciparum. To be noted: inhibitor at IC80; for Percent rescue ± SEM by pantethine, PfAS: pantethine 125 μM; for Percent rescue ± SEM by pantothenate, PfAS: pantothenate 300 μM; for Percent rescue ± SEM by CoA, PfAS: CoA 0.8 mM; for Percent rescue ± SEM by dephospho CoA, PfAS: dP-CoA 0.8 mM. How it is done: (§4) Pantothenate is the first substrate of the pathway (Fig. 1) and its addition was intended to rescue the action of possible competitive inhibitors of the first enzyme, PanK. […] It is not known, whether P. falciparum is capable of pantetheine phosphorylation for utilization in CoA synthesis. […] Finally, the rescue ability of dP-CoA, the final substrate of CoA synthesis, was tested. […] Inhibitors competing with dP-CoA for DPCK binding were expected to be displaced, thereby rescuing parasite survival, by dP-CoA supplementation in a concentration dependent manner.
An imaging based assay was utilised to assess the chemical rescue on asexual stages of P. falciparum as described previously. All the pathway intermediates were purchased from Sigma. CoA and dP-CoA were dissolved in sterile distilled water to obtain a 20 mM stock solution, which was then aliquoted and stored at -20 °C until use. […] Each pathway intermediate was tested on the parasites at a range of concentrations to assess potential toxicity. […] On early stage P. falciparum gametocytes the same concentrations as for CoA were tested for dP-CoA; against asexual blood stage P. falciparum, late stage gametocytes and Trypanosoma b. brucei five dP-CoA concentrations were tested (2 mM, 1.5 mM, 1 mM, 0.75 mM and 0.5 mM).
(§5) The same concentration ranges of the CoA pathway intermediates were supplemented to parasites treated with the experimental compounds. The inhibitors were used at their respective final assay concentration of IC80 (as determined previously in the corresponding P. falciparum development stage or T. b. brucei assay). […] The negative control used in each assay was 0.4% DMSO, whilst the positive control was 2 μM artemisinin for asexual P. falciparum blood stages and 5 μM puromycin for all gametocyte stages and T. b. brucei. The percentage growth of the respective parasites following compound treatment was determined using Microsoft ® Excel 2010, and compared with their controls. All rescue assays were performed as two independent experiments each in duplicate point.

The target of series [6] is early stage gametocytes (stage I to IIb/III) of P. falciparum line NF54^Pfs16. Nature of the series: Gametocyte luciferase assay, early stage. In kind it is cell-based, Plasmodium falciparum.
From the text: (§6) To investigate a potential role of CoA biosynthesis for host to vector transmission of the malaria parasite, we investigated the activity of our compounds on P. falciparum gametocytes, the sexual stages of P. falciparum, essential for malaria transmission. […] Parasite stage-specificity and gametocytocidal activity of the compounds was therefore investigated, utilizing a luciferase-based approach on early stage (development from stage I to IIb/III [30]) and late stage (IV to V [51]) gametocytes.
as §3

For series [7], the system named is P. falciparum pantothenate kinase (PfPanK). Nature of the series: Radiometric pantothenate phosphorylation assay in P. falciparum lysate. Format: biochemical, Plasmodium falciparum. Conditions: 100 μM single concentration, all compounds (Figure S2a).
Experimental: A radiometric assay, which allows measurement of the phosphorylation of various substrates by kinases present in P. falciparum lysates [16, 39], was used to test the effect of the chemical compounds of interest at 100 μM concentration on PanK activity.
The ability of the test compounds to inhibit P. falciparum pantothenate kinase (PfPanK) was assessed with a radiometric pantothenate phosphorylation assay as described previously [39]. In short, the phosphorylation of [^14C] pantothenate by P. falciparum lysates was measured in the presence or absence of a single concentration (100 μM, two biological replicates in duplicate technical repeats) of each test compound. […] P. falciparum lysate was prepared from trophozoite stage parasites isolated from their host RBC by treatment with 0.05% (w/v) saponin, and washed (three times) in HEPES-buffered saline (125 mM NaCl, 5 mM KCl, 20 mM D-glucose, 25 mM HEPES, 1 mM MgCl2, pH 7.1). Lysates were prepared in 10 mM potassium phosphate, pH 7.4, the concentration of cell lysates was determined from cell counts with an improved Neubauer hemocytometer, and aliquots of lysate were stored at -20 °C.[^14C] pantothenate, [^14C]
The target of series [8] is late stage gametocytes (stage IV to V) of P. falciparum line NF54^Pfs16. Briefly: Gametocyte luciferase assay, late stage. In kind it is cell-based, Plasmodium falciparum.
From the text: as §6, §3

Series [9] concerns T. b. brucei trypomastigotes. Briefly: Chemical rescue with CoA pathway intermediates, T. b. brucei. In kind it is cell-based, Trypanosoma brucei brucei. To be noted: inhibitor at IC80; for Percent rescue ± SEM by CoA, Tbb: CoA 1.0 mM; for Percent rescue ± SEM by pantethine, Tbb: pantethine 2.44 μM; for Percent rescue ± SEM by pantothenate, Tbb: pantothenate 1.25 mM. How it is done:
as §4
An imaging based assay was utilised to assess the chemical rescue on asexual stages of P. falciparum as described previously. All the pathway intermediates were purchased from Sigma. […]
as §5

The mark [10] stands for this setting: read-out: Early stage gametocyte IC50.
The mark [11] stands for this setting: read-out: Late stage gametocyte IC50.
Setting [12] is: highest concentration 40 μM, read-out: Early stage gametocyte IC50 ± SEM.
[13] abbreviates: highest concentration 40 μM, read-out: Late stage gametocyte IC50 ± SEM.

Molecules are shown by their SMILES. Several values for one entry are separate records, joined by “and”; a condition that tells them apart may be missing. Equal entries are not always repeated. Where two headings read alike, the source gives them in different places. Bounds are passed on as bounds.

As usually defined, the IC50 is the concentration at which inhibition is half-maximal. In the case of `Cc1csc(Sc2ncnc3sccc23)n1` [Amb180780], the IC50 in series [1] was more than 40000 nM; in series [2], approximately 40000 nM; in [4], 60 to 120 nM; in series [6] (setting [10]) it was 60 nM; in series [8] (setting [11]), 70 nM. Moreover, the “cytotoxicity against any of the cell lines investigated (in words)” value in series [3] is on record as “no or only negligible cytotoxicity”. In addition, in [4], the “activity against all P. falciparum development stages tested (in words)” value is on record as “sub-micromolar IC50 values”. For the same molecule, the “Percent rescue ± SEM by pantethine, PfAS” value in series [5] is 76.2 ± 7.7% and 76 ± 8%. Also, in series [5], the “Percent rescue ± SEM by pantothenate, PfAS” value is “No and not by pantothenate”. Also, the PanK inhibition entry in series [7] was “did not reveal inhibition of PanK”.

Regarding `CC(=O)c1ccc2c3c(onc13)-c1ccccc1C2=O` [Amb3377585], in series [9], the “Percent rescue ± SEM by CoA, Tbb” value is reported as 95.0 ± 4.2%; the “Percent rescue ± SEM by pantethine, Tbb” value is “No”; the “Percent rescue ± SEM by pantothenate, Tbb” value was 34.2 ± 1.3% and 34 ± 1%. In series [9] (dP-CoA 1.6 mM), the “Percent rescue ± SEM by dephospho CoA, Tbb” value was determined as 100.4 ± 1.4%. Also, in series [1], the half-maximal inhibitory concentration (IC50) was determined as 5500 ± 640 nM. Further, the IC50 in series [2] is 2750 ± 180 nM. The IC50 in series [3] is 5000 to 9000 nM. Also, in [5], the “Percent rescue ± SEM by CoA, PfAS” value amounted to 89.3 ± 2.6%; the “Percent rescue ± SEM by dephospho CoA, PfAS” value turned out to be 38.7 ± 4.7%; the “Percent rescue ± SEM by pantethine, PfAS” value is reported as “No”; the “Percent rescue ± SEM by pantothenate, PfAS” value is reported as “No”. Moreover, the concentration for half-maximal inhibition (IC50) in [6] (setting [12]) turned out to be 250 ± 10 nM. In [8] (setting [13]), the IC50 came out at 6220 ± 2500 nM.

`CC(=O)C1=C(c2ccccc2)C(=O)c2ccccc2C1=O` [Amb4317088]: in [9], the “Percent rescue ± SEM by CoA, Tbb” value is listed as 85.0 ± 6.9%; the “Percent rescue ± SEM by pantethine, Tbb” value is given as “No”; the “Percent rescue ± SEM by pantothenate, Tbb” value was “No”. Also, the IC50 in series [1] worked out at 1400 ± 60 nM. Besides, in series [2], the IC50 was 2330 ± 120 nM. For the same molecule, in [3], the IC50 lay within 870 to 4600 nM. For the same molecule, the “activity against all P. falciparum development stages tested (in words)” value in [4] is given as “moderate, single digit micromolar activity”. Further, in series [5], the “Percent rescue ± SEM by CoA, PfAS” value is 84.5 ± 7.7%; the “Percent rescue ± SEM by dephospho CoA, PfAS” value turned out to be 77.6 ± 5.5%; the “Percent rescue ± SEM by pantethine, PfAS” value was “No”; the “Percent rescue ± SEM by pantothenate, PfAS” value was “No”. In series [6] (setting [12]), the IC50 was 2880 ± 180 nM. Further, the IC50 in [8] (setting [13]) was 2240 nM and 2200 nM.

In the case of `CC1=CC(=O)C(C(C)C)=C/C1=N/OS(=O)(=O)c1ccccc1` [STK 740987], in series [9], the “Percent rescue ± SEM by CoA, Tbb” value is given as 69.6 ± 10.6%; the “Percent rescue ± SEM by pantethine, Tbb” value is reported as “No”; the “Percent rescue ± SEM by pantothenate, Tbb” value is “No”. Besides, the IC50 in series [1] was more than 20000 nM. In series [2], the IC50 is more than 40000 nM. For the same molecule, the “cytotoxicity against any of the cell lines investigated (in words)” value in series [3] is on record as “no or only negligible cytotoxicity”. In [4], the “activity against all P. falciparum development stages tested (in words)” value was “sub-micromolar IC50 values” and the IC50 was 380 to 460 nM. Besides, in series [5], the “Percent rescue ± SEM by CoA, PfAS” value is 103.9 ± 3.4%; the “Percent rescue ± SEM by dephospho CoA, PfAS” value is on record as 88.9 ± 6.7%; the “Percent rescue ± SEM by pantethine, PfAS” value was “No”; the “Percent rescue ± SEM by pantothenate, PfAS” value is recorded as “No”. For the same molecule, in series [6] (setting [10]), the IC50 was 430 nM. The IC50 in series [8] (setting [11]) came out at 460 nM.

These data come from PMC5114727, “Biological characterization of chemically diverse compounds targeting the Plasmodium falciparum coenzyme A synthesis pathway” (Parasites & Vectors, 2016).
